Entries after “also recorded” stand apart in the source; their conditions may differ.
Experiments:
[1] = system: CYP1A2, 2B6, 2C8, 2C9, 2C18, 2C19, 2J2, FMO1, FMO3, OATP1B1, OATP1B3, OCT1; test: In vitro substrate assessment, other enzymes and transporters; format: in vitro ADME
pregnant rabbits = test: Oral embryo-fetal developmental study in rabbits; format: in vivo
[2] = system: patients with rheumatoid arthritis; conditions: in vivo
Source text: Exposure adjusted incidence rates were adjusted by trial for all the adverse events reported in this section.
Patients 18 years of age and older were eligible to participate. The presence of at least 6 tender and 6 swollen joints and evidence of systemic inflammation based on elevation of hsCRP was required at baseline.

[3] = system: IL-6 (JAK1/JAK2)-induced STAT3 and IL-7 (JAK1/JAK3)-induced STAT5 phosphorylation; test: IL-6 induced STAT3 and IL-7 induced STAT5 phosphorylation in whole blood of healthy volunteers; format: in vivo, human; conditions: immediate release formulation
Method: The maximal inhibition was observed 1 hour after dosing which returned to near baseline by the end of dosing interval.

[4] = system: patients with moderately to severely active rheumatoid arthritis, naive to MTX; test: Trial RA-I (NCT02706873); format: in vivo, human; conditions: RA-I through Week 24; 30 mg
Method: The primary endpoint was the proportion of patients who achieved an ACR50 response at Week 12. Key secondary endpoints included disease activity score (DAS28-CRP) ≤3.2 at Week 12, DAS28-CRP <2.6 at Week 24, change from baseline in HAQ-DI at Week 12, and change from baseline in van der Heijde-modified total Sharp Score (mTSS) at Week 24.
Inhibition of progression of structural joint damage was assessed using the modified Total Sharp Score (mTSS) and its components, the erosion score and joint space narrowing score, at Week 26 in Trial RA-IV and Week 24 in Trial RA-I. The proportion of patients with no radiographic progression (mTSS change from baseline […]) was also assessed.

rat bone marrow = test: In vivo rat bone marrow micronucleus assay
[5] = system: patients with moderately to severely active rheumatoid arthritis, inadequate response to MTX; test: Trial RA-II (NCT02706951); format: in vivo, human; conditions: RA-II through Week 14; 30 mg monotherapy
Source text: The primary endpoint was the proportion of patients who achieved an ACR20 response at Week 14. Key secondary endpoints included DAS28-CRP ≤3.2, DAS28-CRP <2.6, and change from baseline in HAQ-DI at Week 14.

[6] = Population pharmacokinetic analyses; format: in vivo, human
Method: Renal clearance indicates some involvement of renal transporters in the excretion. Renal secretion is however not estimated to contribute to more than 25% of the elimination. […] As used herein, reference to “severe renal impairment” means a creatinine clearance of less than 30 mL/min.
The effect of different intrinsic factors has been evaluated in dedicated PK studies in renal and hepatic impairment and in Asian subjects, and by population pharmacokinetic analysis from the phase 2/3 studies. […] There are limited data in patients aged 75 years and older and there is no pharmacokinetic data in children and adolescents.

[7] = Model-estimated and predicted upadacitinib Cmax and AUCss in UC patients with co-administration of strong CYP3A4 inhibitors; parameters: species or system human; conditions: for Predicted Median Cmax in UC Patients with Strong CYP3A4 inhibitors based on results from M13-401: model-estimated value multiplied by 1.7; for Predicted AUCss in UC Patients with Strong CYP3A4 inhibitors based on results from M13-401, Median: model-estimated value multiplied by 1.75
Source text: The data from Study M13-401 are provided in Table 38 and Table 39, which show the expected increase in Cmax and AUCss, respectively, in patients with UC across all dose levels with co-administration of CYP3A4 inhibitors.

male and female rats = test: Fertility study in rats; format: in vivo, rat

CC[C@@H]1CN(C(=O)NCC(F)(F)F)C[C@@H]1c1cnc2cnc3[nH]ccc3n12 [upadacitinib, (3S,4R)-3-Ethyl-4-(3H-imidazo[1,2-a]pyrrolo[2,3-e]pyrazin-8-yl)-N-(2,2,2-trifluoroethyl)pyrrolidine-1-carboxamide hydrate (2:1)]
Substrate of CYP1A2, 2B6, 2C8, 2C9, 2C18, 2C19, 2J2, FMO1, FMO3, OATP1B1, OATP1B3 or OCT1 [1]: not a substrate
Exposure multiple with developmental toxicity (cardiovascular malformations, post-implantation loss, decreased fetal body weights) (pregnant rabbits): ≥ 17 times the 15 mg dose
Exposure multiple with no developmental toxicity (pregnant rabbits; organogenesis): ~2.5 times the 15 mg dose
Hemoglobin decreases below 8 g/dL in at least one measurement, patients [2]: none
Lipid changes with treatment [2]: dose-related increases in total cholesterol, triglycerides and LDL cholesterol
Time of peak elevations in LDL and HDL cholesterol [2]: ≤ 8 Week
Inhibition of IL-6-induced STAT3 and IL-7-induced STAT5 phosphorylation in whole blood [3]: dose- and concentration-dependent inhibition
Time of maximal inhibition after dosing [3]: 1 h
Arterial thrombosis, number of patients [4]: 1 patient
Venous thrombosis, number of patients [4]: 1 patient
Genotoxicity, bone marrow micronucleus (rat bone marrow): tested negatively
Venous thrombosis, number of patients [5]: 0 patients
Plasma exposure, adolescent / pediatric (12 years and older, at least 40 kg) vs adult subjects ([6]; atopic dermatitis studies): similar; also recorded: No meaningful difference
Age as covariate on CL/F and Vc/F ([6]; continuous and discrete (adolescents ≥40 kg vs adults)): not found to be statistically significant
Effect of pH modifying medications (antacids, proton pump inhibitors) on plasma exposures ([6]; in vitro assessments and population PK analyses): not expected to affect
Effect of body weight, gender, race, ethnicity, age on upadacitinib pharmacokinetics / exposure ([6]; in vivo): no relevant effects; also recorded: did not have a clinically meaningful effect
Pharmacokinetics in geriatric patients (>65 years) vs younger adults ([6]; in vivo): No clinically meaningful differences
Effect of CYP2D6 metabolic phenotype (extensive vs poor metabolizers) on upadacitinib CL/F, pharmacokinetics ([6]; population PK analysis): comparability; also recorded: no effect
Predicted Median Cmax in UC Patients with Strong CYP3A4 inhibitors based on results from M13-401 ([7]; 7.5 mg treatment group): 34.3 ng/mL
Predicted AUCss in UC Patients with Strong CYP3A4 inhibitors based on results from M13-401, Median ([7]; 7.5 mg treatment group): 282 ng·h/mL
Predicted Median Cmax in UC Patients with Strong CYP3A4 inhibitors based on results from M13-401 ([7]; 15 mg treatment group): 70.2 ng/mL
Predicted AUCss in UC Patients with Strong CYP3A4 inhibitors based on results from M13-401, Median ([7]; 15 mg treatment group): 599 ng·h/mL
Predicted Median Cmax in UC Patients with Strong CYP3A4 inhibitors based on results from M13-401 ([7]; 30 mg treatment group): 133 ng/mL
Predicted AUCss in UC Patients with Strong CYP3A4 inhibitors based on results from M13-401, Median ([7]; 30 mg treatment group): 1143 ng·h/mL
Predicted Median Cmax in UC Patients with Strong CYP3A4 inhibitors based on results from M13-401 ([7]; 45 mg treatment group): 206 ng/mL
Predicted AUCss in UC Patients with Strong CYP3A4 inhibitors based on results from M13-401, Median ([7]; 45 mg treatment group): 1740 ng·h/mL
Exposure multiple with viable embryos unaffected (male and female rats; 5 mg/kg/day, AUC basis): approximately 1.0 times the MRHD of 30 mg
Exposure multiple with adverse effect on maintenance of pregnancy (male and female rats; 25 mg/kg/day, AUC basis): approximately 13 times the MRHD of 30 mg
Exposure multiple with adverse effect on maintenance of pregnancy (male and female rats; 75 mg/kg/day, AUC basis): ~48 times the MRHD of 30 mg
Exposure multiple without effect on fertility (male and female rats; female rats, 75 mg/kg/day, AUC basis): ~48 times the MRHD of 30 mg
Number of viable embryos (male and female rats; females 5 mg/kg/day mated to males at the same dose): unaffected
Exposure multiple without effect on fertility (male and female rats; male rats, 50 mg/kg/day, AUC basis): approximately 24 times the MRHD of 30 mg
Maintenance of pregnancy (post-implantation losses, viable embryos per litter) (male and female rats; oral 25 and 75 mg/kg/day): adversely affected
Fertility (male and female rats; oral up to 50 mg/kg/day males, 75 mg/kg/day females): no effect on fertility
